Legend:
memory CD8+ T cells = assay: Ki67 expression by whole blood flow cytometry, memory CD8+ T cells; assay type: in vivo, rhesus macaque; conditions: for Ki67 expression in memory CD8+ T cells: AZD5582 treated infant RMs
Method: The ncNF-κB pathway plays an important role in regulating T cell differentiation without causing broad systemic inflammation ([22]). We have previously observed a stimulatory effect on peripheral T cells following AZD5582 treatment specifically measurable through increased intracellular Ki67 expression ([17]). To further assess the effect of AZD5582 on infant RMs, flow cytometry was performed longitudinally on whole blood on the day of doses 1, 3, 6, and 9 and both 48 to 72h and 7 days after each of these doses. These time points were selected to allow longitudinal evaluation while remaining within blood volume constraints.
Multicolor flow cytometric analysis was performed on whole blood (WB) or cell suspensions using predetermined optimal concentrations of the following fluorescently conjugated monoclonal antibodies (MAbs). For WB T cell analysis the following MAbs were used: CD3-allophycocyanin (APC)-Cy7 (clone SP34-2), CD95-phycoerythrin (PE)-Cy5 (clone DX2), Ki67-AF700 (clone B56), HLA-DR-peridinin chlorophyll protein (PerCP)-Cy5.5 (clone G46-6), CCR7-fluorescein isothiocyanate (FITC) (clone 150503), CCR5-APC (clone 3A9), CD62L (clone SK11), and CD45-RA-PE-Cy7 (clone L45) from BD Biosciences; CD8-BV711 (clone RPA-T8), CD4-BV650 (clone OKT4), and PD-1-BV421 (clone EH12.2H7) from BioLegend; and CD28-ECD (clone CD28-2) from Beckman-Coulter. Flow cytometric acquisition and analysis of samples were performed on at least 100,000 events on an AURORA flow cytometer driven by the SpectroFlo software package (Cytek). Analyses of the acquired data were performed using FlowJo version 10.0.4 software (TreeStar).

[1] = test system: CD4+ T cells from SIV-infected, ART-suppressed infant RMs; assay: Ex vivo viral RNA induction assay, infant CD4+ T cells; assay type: cell-based, rhesus macaque; conditions: 100 nM, 9 days, in presence of DTG+FTC
From the text: Following confirmation of ncNF-κB pathway activation in infant naive and memory CD4^+ T cells ex vivo, we next sought to evaluate SIV reactivation following ex vivo AZD5582 stimulation in CD4^+ T cells isolated from SIV-infected, ART-suppressed infant RMs compared to CD4^+ T cells from SIV-infected, ART-suppressed adult RMs. To do so, we isolated CD4^+ T cells through negative selection from the peripheral blood of five SIV-infected, ART-suppressed adult RMs and five SIV-infected, ART-suppressed infant RMs. Cells were stimulated with either 100 nM AZD5582 or rhesus specific anti-CD2/CD3/CD28 beads (as a positive control) in the presence of ART (DTG+FTC) for 9 days. The supernatant was collected to quantify SIVgag RNA through qPCR as a measure of viral reactivation.
Viable cryopreserved PBMCs from SIV-infected, ART-suppressed infant and adult RMs collected 34 to 97 weeks post ART initiation were thawed, and CD4^+ T cells were enriched by negative selection using the NHP CD4^+ T cell isolation kit (Miltenyi Biotec). […] The viral RNA content of frozen cell-free culture supernatants collected on day 9 was determined using the SIVgag qPCR described above.

CN[C@@H](C)C(=O)N[C@H](C(=O)N1CCC[C@H]1C(=O)N[C@H]1c2ccccc2C[C@H]1OCC#CC#CCO[C@@H]1Cc2ccccc2[C@@H]1NC(=O)[C@@H]1CCCN1C(=O)[C@@H](NC(=O)[C@H](C)NC)C1CCCCC1)C1CCCCC1 [AZD5582]
Mean Ki67 expression in peripheral memory CD8+ T cells (memory CD8+ T cells; 3-days post-AZD5582 (doses 1, 3, 6, 9), P = 0.03): 26.5%
Ki67 expression in memory CD8+ T cells (memory CD8+ T cells; 7 days following dose 1): 46.7%
Ki67 expression in memory CD8+ T cells (memory CD8+ T cells; before the increase seen after dose 1): 5.1%
Mean Ki67 expression in peripheral memory CD8+ T cells (memory CD8+ T cells; baseline (immediately before doses 1, 3, 6, 9)): 18.2%
Average increase of Ki67 expression in memory CD8+ T cells after dose 1 (memory CD8+ T cells; relative to three baseline measurements, treated infant RMs): 23.3%
Animals whose CD4+ T cell cultures showed increased SIV RNA expression in supernatant [1]: 1/5

Reference: paper PMC9006931, “Altered Response Pattern following AZD5582 Treatment of SIV-Infected, ART-Suppressed Rhesus Macaque Infants” (Journal of Virology, 2022)
